Source: US20210386754A1, “COMPOSITIONS AND METHODS FOR TREATING ATHEROSCLEROTIC VASCULAR DISEASE” (AUGUSTA UNIVERSITY RESEARCH INSTITUTE, INC., priority 2020, published 2021)
“Also recorded” adds a separate entry of the source.

Tests used:
ApoE-/- mice = test: Atherosclerosis model: ApoE-/- mice, partial LCA ligation, Western diet; format: in vivo, mouse; conditions: male ApoE-/- mice, Western diet 4 weeks, EIPA via subcutaneously implanted minipump
[1] = test system: CD36-/-/SR-A-/- BMDM overexpressing HRasG12V; test: Ras (HRasG12V)-induced ox-/ac-LDL internalization, Nile Red FACS; format: cell-based, mouse; conditions: EIPA 25 μM, 1 hr; 50 μg/mL ox-LDL or ac-LDL, 24 hr
Description: (§1) Foam cell formation: THP-1 macrophages or bone marrow-derived macrophages were treated with vehicle, known macropinocytosis stimulators (PMA 1 μM, M-CSF 100 ng/mL or PDGF 200 ng/mL)+/− macropinocytosis inhibitors (imipramine 10 μM or EIPA 25 μM; 1 hour pre-incubation) in the presence of nLDL, ox-LDL, or ac-LDL ([…]) for 24 hours. Cells were fixed in 2% PFA and stained with Nile Red (50 ng/mL) for 7 min. Fluorescence intensity was measured using the FL3 channel for Nile Red (Ex: 488 nm, Em: 670 nm).
HRasG12V mutant adenovirus (AD-HRasG12V) and control adenovirus (AD-GFP) were obtained from Dr. Brian Stansfield. Adenovirus multiplicity of infection (MOI) was calculated according to the OD260 of the adenovirus. Macrophages grown at 60-70% confluence were incubated in 500 μl basal medium containing Ad-GFP or Ad-HRasG12V adenovirus at 200 MOI (multiplicity of infection). After 4 hours, media was replaced with fresh complete tissue culture medium for a continuous culture. Cells were treated as indicated within 48 hours after viral transfection and collected for flow cytometry. Overexpression of adenovirus was confirmed by measuring GFP fluorescence. Fluorescence intensity was measured using the FL1 channel GFP (Ex: 488 nm, Em: 530 nm).

RAW 264.7 macrophages [2] = test: Measurement of cholesterol efflux (DiI); format: cell-based; conditions: EIPA 25 μM, 1 hour
Description: RAW 264.7 macrophages were pretreated with vehicle or EIPA (25 μM, 1 hour) and incubated with PMA (1 μM) in the presence or absence of Dil-LDL (50 μg/mL) at 37° C. for 24 h. Cells were washed 3 times with PBS, RPMI-1640 medium containing 1% FBS was added and cells incubated for another 24 hours. Finally, the medium was collected and Dil fluorescence intensity in the media was measured using a CLARIOstar multi-mode microplate reader.

[3] = test system: F4/80+ macrophages of atherosclerotic ApoE-/- aorta; test: In vivo DiI-nLDL uptake by macrophages of atherosclerotic arteries; parameters: species or system mouse; conditions: EIPA 25 mg/kg/day, i.p. for 3 days; DiI-nLDL 100 μg retro-orbitally; 12 weeks Western diet
Description: Isolation of macrophages from atherosclerotic arteries: 8-10-week-old ApoE^−/− mice were fed a Western diet for 12 weeks. Mice were treated with vehicle or EIPA (25 mg/kg/day, i.p.) for 3 days. On the day of sacrifice, mice were retro-orbitally injected with vehicle or 100 μg Dil-nLDL. After 4 hours, mice were anaesthetized and perfused with ice-cold PBS for 5 min and the entire thoracic aorta with LCA was isolated. Following removal of the adventitia, macrophages were isolated using the Neonatal Heart Dissociation Kit (Miltenyi Biotech.) and CD11b microbeads (Miltenyi Biotech.). Cells were stained with anti-F4/80-APC (clone BM8) or IgG control antibodies (Biolegend). Dil fluorescence was measured in F4/80-positive macrophages [Dil (Ex: 549 nm, Em: 565 nm) and APC (Ex: 640 nm, Em: 670 nm)].

RAW 264.7 macrophages [4] = test: Caveolin-mediated endocytosis of Alexa Fluor 488-albumin; format: cell-based; conditions: EIPA 25 μM, 1 hr; AF488-albumin 1 μg/ml
Description: Clathrin- and caveolin-mediated endocytosis: Receptor-mediated uptake of FITC-transferrin (1 μg/mL; clathrin-mediated endocytosis) and Alexa Fluor 488-albumin ([…]; caveolin-mediated endocytosis) was investigated in RAW 264.7 macrophages following their incubation with ±EIPA (25 μM; 1 hour pre-incubation). Fluorescence intensity was measured using the FL1 channel for FITC and Alexa Fluor 488 (Ex: 488 nm, Em: 530 nm).

THP-1 macrophages = test: Foam cell formation / nLDL macropinocytosis, Nile Red FACS; format: cell-based, human; conditions: EIPA 25 μM, 1 hr pre-incubation; nLDL 50 μg/ml
Description: Flow cytometry experiments were performed using the BD Accuri C6 flow cytometer using a standard protocol.
as §1

RAW 264.7 macrophages [5] = test: Cell viability assay, LIVE/DEAD Fixable Far Red dye; format: cell-based; conditions: EIPA 25 μM, 1 hr, then PMA 4 hours
Description: Cell viability assay: RAW 264.7 macrophages were plated in 24 well plates at a density of 1×10^6 cells/mL. Twenty four hours later, macrophages were pre-incubated with vehicle or EIPA (25 μM, 1 hr) and treated with PMA (1 μM, 4 hrs). Cells were fixed in 2% PFA, resuspended in FACS buffer (2% BSA and 0.01% sodium azide in PBS), and stained with the LIVE/DEAD™ Fixable Far Red dye to identify live cells. Fluorescence intensity was measured using the FL4 channel (Ex: 650 nm, Em: 660 nm).

[6] = test system: human aortic endothelial cells; test: qRT-PCR of SR-B1 mRNA expression; format: cell-based; conditions: EIPA 25 μM, 24 hr

CCN(c1nc(N)c(C(=O)N=C(N)N)nc1Cl)C(C)C [EIPA, 5-(N-ethyl-N-isopropyl)amiloride]
atherosclerosis (ORO positive area, LCA) (ApoE-/- mice): inhibited atherosclerosis; also recorded: attenuates | ox- and ac-LDL internalization (Nile Red fluorescence) [1]: inhibits | cholesterol efflux in lipid-laden macrophages (RAW 264.7 macrophages [2]): does not promote | DiI-LDL uptake by F4/80+ macrophages in atherosclerotic arteries [3]: substantially inhibited | caveolin-dependent albumin internalization (RAW 264.7 macrophages [4]): without inhibiting; also recorded: does not inhibit | PMA-induced nLDL macropinocytosis (THP-1 macrophages): blocks macrophage macropinocytosis; also recorded: inhibits | Cytotoxicity (LIVE/DEAD Fixable Cell Stain) (RAW 264.7 macrophages [5]): no cell death | SR-B1 mRNA levels [6]: does not increase
